Test results reported in publication PMC10741027, “Risk Assessment of Psychotropic Drugs on Mitochondrial Function Using In Vitro Assays” (Biomedicines, 2023).
Like-named read-outs stand apart in the source and are kept apart here.

Columns and labels:
HepG2 cells [1] = test: Acute extracellular flux (AEF) assay in intact HepG2 cells (Seahorse XFe96); format: cell-based, human
HepG2 cells [2] = system: HepG2 cells; design: method as in PMID 18344530; conditions: 200 µM, not in Glu media; cited from earlier work
CI [3] = system: CI; design: method as in PMID 18344530; conditions: isolated mitochondria; read-out: CI inhibition IC50; cited from earlier work
[4] = literature values, plasma or serum of adult humans when possible; ref 68-88 (per drug, Table 2 Cmax Reference); cited from earlier work
[5] = system: rPFO permeabilized HepG2 cells; test: Mitochondrial respiratory complexes in rPFO permeabilized HepG2 cells (Seahorse XF); conditions: Homo sapiens, HepG2, read-out: Pyruvate Respiration AC50
HepG2 cells [6] = test: Glu/Gal assay: cellular ATP (CellTiter-Glo) after 24 h in glucose or galactose media; conditions: for AC50 / minimal effective concentration: Homo sapiens, HepG2, 24 h
complex I = system: complex I; design: method as in PMID 31104106; conditions: 50 µM, 30 min incubation; cited from earlier work
CI-linked respiration = conditions: read-out: concentration inhibiting CI-linked respiration by 50%; rat liver isolated mitochondria; cited from earlier work
[7] = system: rPFO permeabilized HepG2 cells
HepG2 cells [8] = system: HepG2 cells
CI [9] = system: CI; design: method as in PMID 21120605; conditions: 50 µM, 18 h incubation, CHO cells; cited from earlier work
[10] = system: ADP-stimulated respiration; conditions: isolated rat liver mitochondria; cited from earlier work
liver mitochondria = system: liver mitochondria; design: method as in PMID 1347214; conditions: rats fed 1% (w/w) for 75 days; cited from earlier work
[11] = Homo sapiens, HepG2, minimum effective concentration crossing vehicle control threshold, read-out: MEC ATP Production
[12] = Homo sapiens, HepG2, minimum effective concentration crossing vehicle control threshold, read-out: MEC OCR
[13] = Homo sapiens, HepG2, minimum effective concentration crossing vehicle control threshold, read-out: MEC Reserve Capacity
[14] = Homo sapiens, HepG2, concentration at which 50% maximum effect is observed, read-out: AC50 ATP Production
[15] = Homo sapiens, HepG2, concentration at which 50% maximum effect is observed, read-out: AC50 ECAR
[16] = Homo sapiens, HepG2, concentration at which 50% maximum effect is observed, read-out: AC50 OCR
[17] = Homo sapiens, HepG2, concentration at which 50% maximum effect is observed, read-out: AC50 Proton Leak
[18] = Homo sapiens, HepG2, concentration at which 50% maximum effect is observed, read-out: AC50 Reserve Capacity
[19] = Homo sapiens, HepG2, minimum effective concentration crossing vehicle control threshold, read-out: MEC ECAR
[20] = Homo sapiens, HepG2, read-out: AC50 ATP Production
[21] = Homo sapiens, HepG2, read-out: AC50 ECAR
[22] = Homo sapiens, HepG2, read-out: AC50 OCR
[23] = Homo sapiens, HepG2, read-out: AC50 Proton Leak
[24] = Homo sapiens, HepG2, read-out: AC50 Reserve Capacity
[25] = Homo sapiens, HepG2, read-out: MEC ATP Production
[26] = Homo sapiens, HepG2, read-out: MEC OCR

Structure (SMILES)	minimal effective concentration (HepG2 cells [1]; [11])	minimal effective concentration (HepG2 cells [1]; [12])	minimal effective concentration (HepG2 cells [1]; [13])	AC50 (HepG2 cells [1]; [14])	AC50 (HepG2 cells [1]; [15])	AC50 (HepG2 cells [1]; [18])	Cmax [4]	AC50 (HepG2 cells [6]; read-out: Gal AC50)	minimal effective concentration (HepG2 cells [6]; read-out: Gal MEC)	AC50 (HepG2 cells [6]; read-out: Glu AC50)	minimal effective concentration (HepG2 cells [1]; [19])	minimal effective concentration (HepG2 cells [6]; read-out: Glu MEC)	other results
O=C1CC2(CCCC2)CC(=O)N1CCCCN1CCN(c2ncccn2)CC1 [Buspirone]	80.9 µM	4.83 µM	8.57 µM	> 100 µM	> 100 µM	43.7 µM	3 nM	99 µM	35.7 µM	> 100 µM			AC50 (HepG2 cells [1]; [16]): > 100 µM; AC50 (HepG2 cells [1]; [17]): > 100 µM; depletion (cytotoxicity) in Gal media (HepG2 cells [2]): 60%; IC50 (CI [3]): 48 µM; AC50 [5]: > 100 µM
CN1CCN(C2=Nc3cc(Cl)ccc3Nc3ccccc32)CC1 [Clozapine]	37.3 µM			> 100 µM	> 100 µM		220 nM	60.8 µM	44.4 µM	56.7 µM	20.2 µM	34.1 µM	decrease of complex I activity (complex I): 85%
CNCCC(Oc1ccc(C(F)(F)F)cc1)c1ccccc1 (centres unmarked) [Fluoxetine]	68.6 µM	8.12 µM	25.2 µM			70.4 µM	40 nM	17.5 µM	12.1 µM	13.3 µM	67.3 µM	6.89 µM	IC50 (CI-linked respiration): 250 µM
O=C1Nc2ccc(Cl)cc2C(c2ccccc2Cl)=NC1O (centres unmarked) [Lorazepam]							100 nM	> 100 µM		> 100 µM			AC50 (HepG2 cells [1]; [20]): > 100 µM; AC50 (HepG2 cells [1]; [21]): > 100 µM; AC50 (HepG2 cells [1]; [22]): > 100 µM; AC50 (HepG2 cells [1]; [23]): 15 µM; AC50 (HepG2 cells [1]; [24]): > 100 µM; minimal effective concentration (HepG2 cells [1]; [25]): 3.2 µM; minimal effective concentration (HepG2 cells [1]; [26]): 63.7 µM; minimal effective concentration (HepG2 cells [1]; Homo sapiens, HepG2, read-out: MEC Proton Leak): 3.14 µM; Most sensitive mechanism / response in permeabilized HepG2 assay (OCR) [7]: did not significantly inhibit any of the ETC complexes; Effect on cell viability / ATP in Glu and Gal media (in words) (HepG2 cells [8]): did not exhibit toxicity neither in glucose nor in galactose-grown cells
CN1c2ccccc2C(NCCCCCCC(=O)O)c2ccc(Cl)cc2S1(=O)=O (centres unmarked) [Tianeptine]								57.6 µM	41.8 µM	> 100 µM			AC50 (HepG2 cells [1]; [20]): > 100 µM; AC50 (HepG2 cells [1]; [21]): > 100 µM; AC50 (HepG2 cells [1]; [22]): > 100 µM; AC50 (HepG2 cells [1]; [23]): > 100 µM; AC50 (HepG2 cells [1]; [24]): 21.6 µM; minimal effective concentration (HepG2 cells [1]; [25]): 40.3 µM; minimal effective concentration (HepG2 cells [1]; [26]): 5.5 µM; minimal effective concentration (HepG2 cells [1]; Homo sapiens, HepG2, read-out: MEC Reserve Capacity): 0.182 µM; inhibition of CI activity (CI [9]): ~50%
CN1CCN(CCCN2c3ccccc3Sc3ccc(C(F)(F)F)cc32)CC1 [Trifluoperazine]			< 0.002 µM			0.157 µM	5 nM	1.13 µM	0.8 µM	1 µM		0.75 µM	minimal effective concentration (HepG2 cells [1]; minimum effective concentration crossing vehicle control threshold, read-out: MEC Reserve Capacity): <0.002 µM; inhibition of ADP-stimulated respiration (concentration) [10]: 66 µM; Effect on cell viability / ATP in Glu and Gal media (in words) (HepG2 cells [6]; 24 h incubation, top concentration): complete loss of cell viability in both media
CCCC(CCC)C(=O)O [Valproic acid]	5200 µM	520 µM	3090 µM	> 10000 µM	> 10000 µM	> 10000 µM	367000 nM	> 10000 µM		> 10000 µM	2600 µM		minimal effective concentration (HepG2 cells [1]; Homo sapiens, HepG2, minimum effective concentration crossing vehicle control threshold, read-out: MEC Proton Leak): 1140 µM; AC50 (HepG2 cells [1]; [16]): > 10000 µM; AC50 (HepG2 cells [1]; [17]): 9180 µM; decrease in the respiration rate with substrates feeding CI and CII (liver mitochondria): 30%; AC50 [5]: > 10000 µM
